One compound from article PMC5571287 (Antimicrobial Agents and Chemotherapy, 2017) can be followed below.

In one data set the test system is RSVA 492. The data set can be described thus: microbe, parasite or virus in culture. As to conditions: human respiratory syncytial virus, RSVA 492, clinical. In kind it is cell-based.
A further data set has as its target human polymerase β (Homo sapiens, UniProt P06746). The data set can be described thus: Human polymerase inhibition in vitro (data not shown). The data set is classed as biochemical. The note with it: up to 1 μM.
For a further data set, the system named is RSVB 1000. The data set can be described thus: microbe, parasite or virus in culture. In kind it is cell-based. As to conditions: human respiratory syncytial virus, RSVB 1000, clinical, 3 parameter curve fit.
In the next data set the test system is RSV A Long. In words: CPE assay in HEp-2 cells (resazurin). As to conditions: human respiratory syncytial virus, laboratory. In kind it is cell-based.
Data set [1] can be described thus: Antiviral panel: cytotoxicity. The data set is classed as cell-based. As to conditions: human, Huh-7 cells with HCV GT1b replicon; Huh-7, GT1b replicon. (In antiviral work, replicon cells carry a viral genome segment that copies itself.)
For data set [2], the system named is human mitochondrial polymerase. The data set can be described thus: Human polymerase inhibition in vitro (data not shown). In kind it is biochemical. As to conditions: up to 1 μM.
A further data set concerns HEp-2 cells. The data set can be described thus: Cell viability in HEp-2 cells (resazurin). The note with it: concentrations up to 14 μM. On the technique in general: Resazurin is reduced to fluorescent resorufin, in cell work by metabolically active cells.
Data set [3] in a line: Cell viability in HEp-2 cells (resazurin). The note with it: human, HEp-2 cells.
For the next data set, the system named is Rhinovirus 16. In words: microbe, parasite or virus in culture. The data set is classed as cell-based, human rhinovirus. As to conditions: Rhinovirus 16, HeLa.
Data set [4] deals with RSVB 1262. As to conditions: human respiratory syncytial virus.
Another data set relates to HIV-1 (IIIB strain). The data set can be described thus: microbe, parasite or virus in culture. The data set is classed as cell-based, human immunodeficiency virus type 1. The note with it: HIV-1, CEM-SS.
Data set [5] relates to RSV A2 protein expression. In words: Western blotting of RSV proteins in RSV A2-infected HEp-2 cells. In kind it is cell-based, respiratory syncytial virus. The note with it: HEp-2, 3 days postinfection. The procedure: HEp-2 cells were seeded in 6-well plates at a density of 3 × 10^5/well (2 ml/well) 24 h before experimentation and were then treated with compounds (10 μl/well), simultaneously infected with RSV A2 (MOI, 1), and incubated for 72 h. Cells were washed with PBS and collected by scraping in 200 μl of PBS with protease and phosphatase inhibitor cocktail (PPI; Sigma-Aldrich; MSSAFE-1VL 1× in PBS), followed by two further washes with 200 μl of PBS, and the cell suspension was centrifuged to pellet. Radioimmunoprecipitation assay (RIPA) buffer (50 μl) containing 50 mM Tris-HCl (pH 7.4), 150 mM NaCl, 1% (vol/vol) NP-40, 0.25% (wt/vol) sodium deoxycholate, and PPI was applied to the cell pellet, which was vortexed and incubated for 30 min, on ice with further cell disruptions every 10 min. The protein concentration of the supernatant after centrifugation was determined by Bradford assay. The lysate containing 30 μg of protein was separated by electrophoresis on a 4 to 12% gradient bis-Tris polyacrylamide gel (Life Technologies; NP0335BOX) and then transferred to a nitrocellulose membrane using the iBlot gel transfer device (Life Technologies). The membrane was blocked with blocking buffer (TBS/T; 20 mM TBS and 0.1% Tween 20 with 5% skim milk) for 1 h at RT and incubated with anti-RSV F protein antibody (Abcam ab43812; 1:1,000) overnight at 4°C for F protein detection. […]
(Immunoblotting shows a protein as a band on a membrane.)

The test system of data set [6] is RSVB 1262. In words: microbe, parasite or virus in culture. In kind it is cell-based. The note with it: human respiratory syncytial virus, RSVB 1262, clinical.
Another data set concerns RSV A2. The data set can be described thus: RSV F protein cell-based ELISA in BEAS-2B cells, washout / nonwashout. The note with it: human respiratory syncytial virus, read-out: IC50, F protein expressed on cell surfaces. As for the experimental part: Approximately 72 h after BEAS-2B cells were seeded in 96-well plates (at 4 × 10^4/ml; 100 μl/well), the medium in the plates was removed and replaced with 200 μl of fresh LHC-8 medium. […] For nonwashout plates, the compounds and DMSO (1 μl/well) were applied immediately after infection. On day 3 postinfection, supernatant was aspirated and the cells were fixed with 4% formaldehyde (100 μl in PBS solution) for 20 min at room temperature (RT), washed three times with wash buffer (WB) (200 μl; PBS containing 0.05% Tween 20), and incubated with blocking buffer (100 μl; 5% bovine serum albumin [BSA] in wash buffer) for 1 h. […] Abcam plc, Cambridge, UK). After a washing, cells were incubated with a horseradish peroxidase (HRP)-conjugated anti-mouse IgG antibody (50 μl/well; 1:2,000, Abcam) for 1 h. Tetramethylbenzidine (TMB) substrate (50 μl) was then added after two washings with WB and one with PBS, and the reaction was stopped by the addition of aqueous sulfuric acid (2 N; 50 μl/well). The resultant signal was determined colorimetrically (OD at 450 nm [OD450] with a reference wavelength of 655 nm) in a microplate reader (Multiskan FC; Thermo Fisher Scientific). Cells were then washed, and 0.5% crystal violet solution ([…]) was applied for 30 min. […] The measured F protein signals (OD450 − OD655 readings) were corrected for cell number (OD595 readings) by dividing the OD450–655 by the OD595 readings.

Where two headings read alike, the source gives them in different places. Some results are limits rather than exact numbers.

Regarding `Cc1cnc(N2CC3(CCOCC3)C2)c(C(=O)Nc2ccc(C(=O)N3CCc4cc(C(=O)Nc5c(C)cccc5F)sc4-c4ccccc43)cc2)c1` [PC786, N-(2-fluoro-6-methylphenyl)-6-(4-(5-methyl-2-(7-oxa-2-azaspiro[3.5]nonan-2-yl)nicotinamido)benzoyl)-5,6-dihydro-4H-benzo[b]thieno[2,3-d]azepine-2-carboxamide], the half-maximal inhibitory concentration (IC50) is 0.42 nM in the data set on RSVA 492 (read-out: CPE IC50); 13.4 nM with RSVB 1000 (read-out: CPE IC50); 2.46 nM in the data set on RSV A Long; greater than 14000 nM in the data set on Rhinovirus 16 (Enterovirus); 9.36 nM with RSVB 1262 [4] (HEp-2, read-out: RSV titre in supernatant IC50 (0.3 Log PFUe reduction) (converted)); greater than 14000 nM in the data set on HIV-1 (IIIB strain) (Human immunodeficiency virus 1, IIIB). The IC50 was 14.5 nM in the data set on RSVB 1262 [6] (read-out: CPE IC50), 0.792 nM with RSV A2 (2 h exposure then 24-h washout before inoculation) and 0.129 nM in the data set on RSV A2 (nonwashout (sustained presence of drug)). The 90% effect concentration (IC90) in the data set on RSVA 492 (read-out: CPE IC90) was 0.57 nM; in the data set on RSVB 1000 (read-out: CPE IC90), 342 nM; in the data set with RSV A Long, 3.25 nM; with RSVB 1262 [4] (HEp-2, read-out: RSV titre in supernatant IC90 (1 Log PFUe reduction) (converted)) it was 12.3 nM; in the data set with RSVB 1262 [6] (read-out: CPE IC90) it was 692 nM. Besides, the “inhibitory effects on human polymerase β” value against human polymerase β was “no measurable inhibitory effects”. The compound further had a CC50 at 3 days in [1] greater than 14000 nM. In data set [2], the “inhibitory effects on human mitochondrial polymerase” value is reported as “no measurable inhibitory effects”. Further, in the data set with HEp-2 cells, the Cell viability result was “did not affect cell viability”. The same compound returned a 50% cytotoxic concentration (CC50) in data set [3] greater than 14000 nM. In addition, the “IC90 or IC95” value in the data set on Rhinovirus 16 and in the data set on HIV-1 (IIIB strain) was greater than 14000 nM in each case. Moreover, in data set [5], the “concentration above which no or little G, N, P, M, M2-1, and F1 protein bands were visible” value was “greater than 14 nM”.

Broadly, the IC50 is the midpoint of a concentration-inhibition curve. For orientation: IC90 means the point of the concentration-response curve where the effect stands at 90%. As usually defined, the CC50 is the concentration giving 50% cytotoxicity. The low end stands for greater toxicity to the cells, the high end for lower toxicity to the cells.
